In patent US11617735B2, “Purified forms of rofecoxib, methods of manufacture and use” (Tremeau Pharmaceuticals, Inc., priority 2018, dated 2023):
Read-outs that look alike come from different tables or passages of the source.

How the values were obtained:
bacterial mutagenicity = settings: cited from earlier work
[1] = Solubility in solvents by UHPLC assay; type: physicochemical
Source text: The tool called “Early phase solvent selection: solubility prediction” was used. This tool allows to predict the solubility of material in a large scope of solvents, knowing the solubility in some of them. The solubility can be also predicted in function of temperature, and for solvent combinations. The solubility prediction is based on similar structures moieties between solvents. Therefore, the measurement of solubility in 16 different solvents allowed for the estimate of solubility in up to 106 solvents. […] Solubilities were obtained by UHPLC assay. Among these 106 solvents, 27 seemed interesting as solvent or antisolvent. DMF. NMP and DMSO are the solvents in which rofecoxib (RXB-201) is the most soluble (>100 g/L at 30° C.). Nevertheless, ICH Q3C, DMF and NMP were less suitable than DMSO which remains the best option. Thus, no changes were implemented regarding the solvent.
Since the main purpose of the recrystallization is to decrease the rate of one single identified impurity, 4-[4-(methylsulfinyl)phenyl]-3-phenyl-2(5H)-furanone solubilities were measured in a couple of probable antisolvents identified in Table 9. A reference of 4-[4-(methylsulfinyl)phenyl]-3-phenyl-2(5H)-furanone (CHG P059-038) was synthesized at lab on 8 g for this study, with 98% purity, as per International Patent Application No. WO/2005/120584, which is incorporated herein in its entirety. Table 10 below reports the solubility of 4-[4-(methylsulfinyl)phenyl]-3-phenyl-2(5H)-furanone in various antisolvent candidates. It is noteworthy that 4-[4-(methylsulfinyl)phenyl]-3-phenyl-2(5H)-furanone is very soluble in acetic acid. […] Alcohols can alternatively be employed as antisolvent.

arthritis model = settings: in vivo; cited from earlier work
[2] = in vivo; cited from earlier work
[3] = system: Salmonella typhimurium (TA98, TA100, TA1535, TA97a) and E. coli (WP2, WP2uvrA, WP2 uvrA pKM101); settings: with and without S9, up to 6000 μg/plate; cited from earlier work
rats = settings: dose levels up to 8 mg/kg; cited from earlier work
[4] = system: Chinese hamster lung cells; settings: all concentrations tested, with and without S-9; cited from earlier work
[5] = Stability of isolated crude rofecoxib towards hydrogen peroxide; type: physicochemical; settings: crude unwashed, stored at room temperature for 17 days (CHG P059-104)
Description: Several verifications were performed to confirm the feasibility of hydrogen peroxide removal: • No corrosion of Stainless steel 316L in contact with crude rofecoxib (RXB-201) mother liquors (enriched in excess hydrogen peroxide) after 10 days at 20° C. […] Crude washings seem to be efficient enough to remove peroxide traces in cake washings. • Stability of isolated crude rofecoxib (RXB-201) towards hydrogen peroxide is very satisfying. Crude unwashed rofecoxib (RXB-201) was stored at room temperature for 17 days. No evolution of UHPLC profile was observed (CHG P059-104).

[6] = RXB-Hydroxy formation from rofecoxib in DMSO with Na2SO3 under air (UHPLC); type: physicochemical; settings: 5.5V DMSO
Description: Trials were performed to check the effect of both temperature and sodium sulfite on the 4-[4-(methylsulphonyl)phenyl]-3-phenyl-5-hydroxyfuran-2-one rate. Pure rofecoxib (RXB-201) (F851) was solubilized in 5.5V DMSO. on which Na2SO3 was added. Three amounts of Na2SO3 were tested: • 0%: rofecoxib (RXB-201) post filtration • 0.5%: ashes result obtained on pilot batch (crude rofecoxib (RXB-201) F801) • 1.5%: ashes result obtained on APG P052-110 batch
Samples were subjected to 2 different temperatures under air atmosphere: • 40° C.: current heating temperature for polishing filtration • 60° C.: possible future temperature for polishing filtration if DMSO volumes are reduced for better productivity.

CHO cells = settings: 25 to 125 μM with S-9 or 25 to 100 μM without S-9; cited from earlier work
[7] = Stability of rofecoxib drug substance at 25° C./60% RH; type: physicochemical; settings: Lot 16P3140F851
Description: (§1) Stability data for rofecoxib drug substance (Lot 16P3140F851) are provided in Tables 6A-B. If an individual impurity is ≥0.05% area, the result is reported to the nearest 0.01%. If an individual impurity is <0.02% (LOD), the result is reported as “not detected” (ND). If an individual impurity is <0.05% area but ≥0.02% area, the result is recorded as <0.05% area.

mice = settings: dose levels up to 60 mg/kg; cited from earlier work
[8] = Stability of rofecoxib drug substance at 40° C./75% RH; type: physicochemical; settings: Lot 16P3140F851
Description: as §1

[9] = analog data from software training sets / literature

In the case of `c1ccc(SCCSc2ccccc2)cc1` [1,2-bis(phenylthio)ethane], the Experimental mutagenicity (bacterial mutagenicity; [9]) is given as “non-mutagenic”.

In the case of `N#CCc1ccccc1` [A-RSM2-01, 2-phenylacetonitrile], the Experimental mutagenicity (bacterial mutagenicity; [9]) is given as “negative”.

`C[S+]([O-])c1ccc(C2=C(c3ccccc3)C(=O)OC2)cc1` (stereo not drawn) [A-STG4-01, 4-(4-(methylsulfinyl)phenyl)-3-phenylfuran-2(5H)-one] gave a solubility ([1]; acetic acid, 30 °C, organic solvent or mixture, Table 10: Acetic acid, 30 °C, read-out: Solubility) of 1540 mg/mL, a solubility ([1]; acetic acid, organic solvent or mixture, acetic acid, temperature not stated, read-out: Solubility in acetic acid) greater than 1000 mg/mL and a solubility ([1]; ethanol, 30 °C, organic solvent or mixture, Table 10: Ethanol, 30 °C, read-out: Solubility) of 28 mg/mL. The solubility ([1]; isopropanol (IPA), 30 °C, organic solvent or mixture, Table 10: IPA, 30 °C, read-out: Solubility) was 0.2 mg/mL, the solubility ([1]; n-butanol, 30 °C, organic solvent or mixture, Table 10: n-Butanol, 30 °C, read-out: Solubility) was 14 mg/mL and the solubility ([1]; water, 30 °C, water, Table 10: Water, 30 °C, read-out: Solubility) was 0.7 mg/mL. The “Pharmacological activity in an arthritis model compared with rofecoxib” value (arthritis model) was “better” and the “Pharmacokinetic profile compared with rofecoxib” value [2] was “slightly improved”.

In the case of `O=C(CBr)c1ccccc1` [LS-188087, 2-bromoacetophenone], the Experimental mutagenicity (bacterial mutagenicity) is given as “negative”.

For `CS(=O)(=O)c1ccc(C(=O)CBr)cc1` [LS-394467, 2-Bromo-1-[4-(methylsulfonyl)phenyl]-1-ethanone], the Experimental mutagenicity (bacterial mutagenicity; [9]) is listed as “positive”.

For `CS(=O)(=O)c1ccc(C2=C(c3ccccc3)C(=O)OC2)cc1` [Rofecoxib, 4-[4-(methylsulfonyl)phenyl]-3-phenyl-2(5H)-furanone], the Mutagenicity [3] is given as “negative”, the Carcinogenicity (rats) is given as “not carcinogenic” and the “Mutations in Chinese hamster lung cells” value [4] is given as “negative”. For the same compound, the solubility ([1]; DMF, 30 °C) was 133 mg/mL, the solubility ([1]; DMF, 30 °C, organic solvent or mixture, DMF, 30 °C, read-out: Solubility) was greater than 100 mg/mL and the solubility ([1]; DMSO, 20 °C, organic solvent or mixture, DMSO, 20 °C, read-out: Solubility) was 93 mg/mL. The solubility ([1]; DMSO, 30 °C) was 107 mg/mL, the solubility ([1]; DMSO, 30 °C, organic solvent or mixture, DMSO, 30 °C, read-out: Solubility) was greater than 100 mg/mL and the solubility ([1]; DMSO, 40 °C, organic solvent or mixture, DMSO, 40 °C, read-out: Solubility) was 133 mg/mL. For the same compound, the solubility ([1]; DMSO, 50 °C, organic solvent or mixture, DMSO, 50 °C, read-out: Solubility) was 181 mg/mL, the solubility ([1]; DMSO, 60 °C, organic solvent or mixture, DMSO, 60 °C, read-out: Solubility) was 181 mg/mL and the solubility ([1]; NMP, 30 °C, organic solvent or mixture, NMP, 30 °C, read-out: Solubility) was greater than 100 mg/mL. The solubility ([1]; acetic acid, 30 °C, organic solvent or mixture, Acetic acid, 30 °C, read-out: Solubility) was 5 mg/mL, the solubility ([1]; acetone, 30 °C, organic solvent or mixture, Acetone, 30 °C, read-out: Solubility) was 28 mg/mL and the solubility ([1]; acetonitrile, 30 °C, organic solvent or mixture, Acetonitrile, 30 °C, read-out: Solubility) was 41 mg/mL. The solubility ([1]; anisole, 30 °C, organic solvent or mixture, Anisole, 30 °C, read-out: Solubility) was 22 mg/mL, the solubility ([1]; chlorobenzene, 30 °C, organic solvent or mixture, Chlorobenzene, 30 °C, read-out: Solubility) was 2.3 mg/mL and the solubility ([1]; dichloromethane, 30 °C, organic solvent or mixture, Dichloromethane, 30 °C, read-out: Solubility) was 45 mg/mL. It also gave a solubility ([1]; ethyl acetate, 30 °C, organic solvent or mixture, Ethyl acetate, 30 °C, read-out: Solubility) of 4.7 mg/mL, a solubility ([1]; methanol, 30 °C, organic solvent or mixture, Methanol, 30 °C, read-out: Solubility) of 1.8 mg/mL and a solubility ([1]; n-butanol, 30 °C, organic solvent or mixture, n-butanol, 30 °C, read-out: Solubility) of 0.2 mg/mL. The solubility ([1]; n-heptane, 30 °C, organic solvent or mixture, n-heptane, 30 °C, read-out: Solubility) was less than 0.1 mg/mL, the solubility ([1]; toluene, 30 °C, organic solvent or mixture, Toluene, 30 °C, read-out: Solubility) was 1.2 mg/mL and the solubility ([1]; water, 30 °C, water, 30 °C, read-out: Solubility) was less than 0.1 mg/mL. For the same compound, the “Solubility in water (descriptive)” value ([1]; water, insoluble regarding US pharmacopeia) was “very poorly soluble”, the “Evolution of UHPLC profile” value [5] was “No evolution” and the “RXB-Hydroxy (UPLC)” value ([6]; 0% Na2SO3 (residue on ignition), IPC1 (3 h), 40° C.) was 0.08 % a/a. For the same compound, the “RXB-Hydroxy (UPLC)” value ([6]; 0% Na2SO3 (residue on ignition), IPC1 (3 h), 60° C.) was 0.16 % a/a, the “RXB-Hydroxy (UPLC)” value ([6]; 0% Na2SO3 (residue on ignition), IPC2 (6 h), 40° C.) was 0.14 % a/a and the “RXB-Hydroxy (UPLC)” value ([6]; 0% Na2SO3 (residue on ignition), IPC2 (6 h), 60° C.) was 0.17 % a/a. The “RXB-Hydroxy (UPLC)” value ([6]; 0.5% Na2SO3 (residue on ignition), IPC1 (3 h), 40° C.) was 0.30 % a/a, the “RXB-Hydroxy (UPLC)” value ([6]; 0.5% Na2SO3 (residue on ignition), IPC1 (3 h), 60° C.) was 0.35 % a/a and the “RXB-Hydroxy (UPLC)” value ([6]; 0.5% Na2SO3 (residue on ignition), IPC2 (6 h), 40° C.) was 0.45 % a/a. The “RXB-Hydroxy (UPLC)” value ([6]; 0.5% Na2SO3 (residue on ignition), IPC2 (6 h), 60° C.) was 0.52 % a/a, the “RXB-Hydroxy (UPLC)” value ([6]; 1.5% Na2SO3 (residue on ignition), IPC1 (3 h), 40° C.) was 0.38 % a/a and the “RXB-Hydroxy (UPLC)” value ([6]; 1.5% Na2SO3 (residue on ignition), IPC1 (3 h), 60° C.) was 0.67 % a/a. For the same compound, the “RXB-Hydroxy (UPLC)” value ([6]; 1.5% Na2SO3 (residue on ignition), IPC2 (6 h), 40° C.) was 0.60 % a/a, the “RXB-Hydroxy (UPLC)” value ([6]; 1.5% Na2SO3 (residue on ignition), IPC2 (6 h), 60° C.) was 0.73 % a/a and the “Percent of aberrant cells” value (CHO cells) was “no significant increases”. The Appearance ([7]; 3 Month) was “White”, the “Assay by HPLC” value ([7]; 3 Month) was 100.4 % w/w and the “Impurities by HPLC: RRT ~ 0.5” value ([7]; 3 Month) was less than 0.05 % area. The “Impurities by HPLC: RXB-furanone” value ([7]; 3 Month) was 0.08 % area, the “Impurities by HPLC: Total Impurities” value ([7]; 3 Month) was 0.11 % area and the “Water Content by Karl Fischer” value ([7]; 3 Month) was 0.08%. The Appearance ([7]; Initial) was “Off-white”, the “Assay by HPLC” value ([7]; Initial) was 99.8 % w/w and the “Impurities by HPLC: RRT ~ 0.5” value ([7]; Initial) was less than 0.05 % area. For the same compound, the “Impurities by HPLC: RXB-furanone” value ([7]; Initial) was 0.08 % area, the “Impurities by HPLC: Total Impurities” value ([7]; Initial) was 0.11 % area and the “Polymorphic form by XRPD” value ([7]; Initial) was “Form A”. The “Water Content by Karl Fischer” value ([7]; Initial) was 0.12%, the Carcinogenicity (mice) was “not carcinogenic” and the Appearance ([8]; 1 Month) was “Off-white”. The “Assay by HPLC” value ([8]; 1 Month) was 99.6 w/w, the “Impurities by HPLC: RRT ~ 0.5” value ([8]; 1 Month) was less than 0.05 % area and the “Impurities by HPLC: RXB-furanone” value ([8]; 1 Month) was 0.08 % area. For the same compound, the “Impurities by HPLC: Total Impurities” value ([8]; 1 Month) was 0.11 % area, the “Water Content by Karl Fischer” value ([8]; 1 Month) was 0.07% and the Appearance ([8]; 3 Month) was “White”. For the same compound, the “Assay by HPLC” value ([8]; 3 Month) was 100.5 w/w, the “Impurities by HPLC: RRT ~ 0.5” value ([8]; 3 Month) was less than 0.05 % area and the “Impurities by HPLC: RXB-furanone” value ([8]; 3 Month) was 0.08 % area. The “Impurities by HPLC: Total Impurities” value ([8]; 3 Month) was 0.12 % area, the “Water Content by Karl Fischer” value ([8]; 3 Month) was 0.09% and the Appearance ([8]; Initial) was “Off-white”. For the same compound, the “Assay by HPLC” value ([8]; Initial) was 99.8 w/w, the “Impurities by HPLC: RRT ~ 0.5” value ([8]; Initial) was less than 0.05 % area and the “Impurities by HPLC: RXB-furanone” value ([8]; Initial) was 0.08 % area. For the same compound, the “Impurities by HPLC: Total Impurities” value ([8]; Initial) was 0.11 % area, the “Polymorphic form by XRPD” value ([8]; Initial) was “Form A” and the “Water Content by Karl Fischer” value ([8]; Initial) was 0.12%.
